{
  "source": "patent US8962686B2",
  "about": "(priority 2010, dated 2015)",
  "key": {"[1]": {"system": "trabecular meshwork (TM) cells", "conditions": "for percentage of TM cell loss: 14 days", "description": "The cell density in the TM aqueous outflow region was examined using the Dex and Dex+PB treated rabbit eyes. […] The specimens were paraffin-processed and serially sectioned at a thickness of 5 μm for hematoxylin-eosin histochemistry. […] The number of cells in TM region was quantified and area was measured by Image J software (NIH, US). (D) The cell densities (mean±standard deviation) were compared among the control and treatment groups and P values were calculated by unpaired Student's t-test."}, "[2]": {"system": "trabecular meshwork extracellular matrix", "conditions": "14 days", "description": "An experiment was conducted to determine whether sodium phenylbutyrate (PB) could reduce the amount of glycogen and collagen accumulated in the extracellular matrix of the trabecular meshwork. The extracellular protein and collagen substrate deposited on paraffin sections of TM aqueous outflow region were examined in Dex treated and Dex +PB treated rabbit eyes by special periodic acid-Schiff and Masson trichrome histochemical staining The rabbit eyes were paraffin-processed and serially sectioned at a thickness of 5 μm for histochemistry. Sections of (A) untreated control; (B) treated with Dex (0.1%) for 14 days and (C) treated with Dex (0.1%) +PB (0.5mM) for 14 days are shown."}, "[3]": {"system": "steroid-induced intraocular pressure (IOP) rise", "conditions": "for percentage of mean reduction in IOP rise: topical PB 1, 5 and 15 mM analyzed as one group, with Dex, vs Dex+BSS eye", "description": "To explore this hypothesis, trimethylamine N-oxide (TMAO) was tested out using the same steroid-induced glaucoma model in rabbits. […] Fourteen New Zealand albino rabbits (7-week-old male) were divided into 5 groups. The right eyes received topical dexamethasone four times a day followed by topical TMAO (2, 10, 50, 100 and 300 mM) four times a day whereas the left eyes received topical dexamethasone four times a day followed by balanced salt solution, a physiological saline that acted as a control, four times a day.\nDexamethasone, a commonly used steroid was used in all our experiments. […] Herein, nine 7-week-old male New Zealand albino rabbits were randomly divided into 3 groups and each of them received Dexamethasone (Dex) (MaxiDex containing 0.1% Dex, Alcon) 5 times a day in both eyes. In addition, topical sodium phenylbutyrate (PB) (Triple Crown America/TriButyrate, Inc. Perkasie, Pa.) in concentrations of 1, 5 or 15 mM were applied to their right eyes 5 times a day and a balanced salt solution (BSS), a physiological saline that acted as a control, to their left eyes 5 times a day. Intraocular pressure (IOP) was measured twice a week at an interval of 3-4 days by a masked technician. […] Three time points (days 14, 37 and 53) were chosen for data analysis. […] The mean baseline intraocular pressure (IOP) was 11.5 mmHg for both eyes. The percentage of reduction in IOP rise by PB was defined as (“Mean IOP rise in eyes with Dex+BSS” minus “Mean IOP rise in eyes with Dex+PB”) divided by “Mean IOP rise in eyes with Dex+BSS”×100%.\nFIG. 2B charts show the longitudinal profiles of IOP measurements of individual rabbits receiving Dex+BSS (left eye, diamonds line) and Dex+PB (right eye, squares line) respectively.\nFourteen 7-week-old male New Zealand albino rabbits received topical dexamethasone (Dex) (MaxiDex containing 0.1% Dex, Alcon) 4 times a day in both eyes."}, "[4]": {"system": "trabecular meshwork (TM) tissues", "description": "The ultrastructural morphology of rabbit trabecular meshwork (TM) tissues was examined in untreated control eyes, dexamethasone (Dex) (0.1%) treated eyes and Dex+PB (1 mM) treated eyes by transmission electron microscopy. […] The normal rabbit trabecular meshwork is shown in FIGS. 12A and B. It consists of bundles of fine fibers (elastic and collagen fibers) of the trabecular cells (FIG. 12A)."}, "[5]": {"system": "elevated intraocular pressure from steroid-induced IOP rise", "method": "On day 56 when Phase II of the experiment started, topical sodium phenylbutyrate (1 mM), instead of balanced salt solution, was applied to the left eyes of 5 rabbits (FIG. 3)."}, "[6]": {"system": "Y437H mutant myocilin transgene mice", "conditions": "oral administration; compared to untreated transgene mice; cited from earlier work"}, "[7]": {"system": "steroid-induced IOP rise", "method": "Eight rabbits were studied in this experiment. All their left eyes received Dex+BSS 5 times a day, from day 0 to day 60, the day when the experiment ended (squares line for both Phase I and Phase II). […] The right eyes of 3 randomly-chosen rabbits were treated with Dex+PB (sodium phenylbutyrate, 0.5 mM) eye drops 5 times a day, from day 0 to day 42. […] On day 43, the treatment of the right eyes of the 3 rabbits changed from Dex+PB to topical Dex+BSS. Still, Dex+BSS eye drops were applied 5 times a day, until day 60 when the experiment ended (broken brown line in Phase II)."}, "[8]": {"system": "cultured human trabecular meshwork (TM) cells", "assay": "MTT cell viability/proliferation assay", "conditions": "PB 0.5 mM and 1 mM, 5 days", "method": "In these tests, cultured human TM cells (7000 cells/ml) were plated in each well in Dulbecco's Modified Eagle medium (DMEM) supplemented with 1000 mg/L glucose, 2% charcoal-stripped fetal bovine serum and antibiotics. They were treated with sodium phenylbutyrate (PB) (0.5, 1 and 5 mM), dexamethasone (Dex) (100 and 500 nM) and a combination of both for 5 days. Using the 3-(4,5-Dimethylthiazol-2-yl)-2,5-diphenyltetrazolium bromide dye (MTT) cell viability/proliferation assay (Invitrogen), the formazan intensity was measured with a multiplate reader at an excitation wavelength of 595 nm and an emission wavelength 610 nm. The mean signal intensity was expressed as a percentage and was compared to the untreated control among treatments."}, "[9]": {"system": "rabbit eye", "method": "Adult male rabbits (n=13) received topical sodium phenylbutyrate (1 and 5 mM) 4 times a day in both eyes. […] The rabbit eyes were examined by an ophthalmologist on days 7 and 14 in which the rabbits were anesthetized with intramuscular injection of ketamine (75 mg/kg) and xylazine (7.5 mg/kg)."}, "[10]": {"conditions": "topical 1 and 5 mM 4 times a day"}},
  "note": "“Also recorded” adds a separate entry of the source. Like-named read-outs stand apart in the source and are kept apart here.",
  "data": [
    {"compound": "C[C@@H]1C[C@H]2[C@@H]3CCC4=CC(=O)C=C[C@]4(C)[C@@]3(F)[C@@H](O)C[C@]2(C)[C@@]1(O)C(=O)CO", "note": "[dexamethasone]", "values": [
      {"measurement": "reduction of cell density in TM region", "setting": "[1]; Dex 0.1% for 14 days, vs untreated control", "value": 53, "unit": "%"},
      {"measurement": "glycogen deposition in trabecular meshwork (periodic acid-Schiff)", "setting": "[2]; topical dexamethasone 0.1% alone", "value": "greater deposition of glycogen"},
      {"measurement": "collagen deposit in trabecular meshwork (Masson trichrome)", "setting": "[2]; topical dexamethasone 0.1% alone, vs untreated control", "value": "substantially increased"},
      {"measurement": "increase in intraocular pressure compared with baseline (day 0)", "setting": "[3]; day 14, topical 0.1% Dex 4 times a day in both eyes", "value": "up to 6 mmHg"},
      {"measurement": "ultrastructure of trabecular meshwork (electron microscopy)", "setting": "[4]; topical 0.1% dexamethasone for 42 days", "value": "deposition of electron dense materials"}
    ]},
    {"compound": "C[N+](C)(C)[O-]", "note": "[TMAO, trimethylamine N-oxide]", "values": [
      {"measurement": "effect on dexamethasone-induced IOP rise", "setting": "[3]; topical TMAO 2 to 300 mM 4 times a day with Dex, study period of 18 days", "value": "did not prevent; also recorded: did not prevent or treat"},
      {"measurement": "IOP difference between Dex+BSS and Dex+TMAO eyes", "setting": "[3]; topical TMAO 2 to 300 mM 4 times a day, 18 days", "value": "no significant difference"}
    ]},
    {"compound": "sodium phenylbutyrate", "values": [
      {"measurement": "mean IOP level", "setting": "[5]; day 67, eyes treated with PB 1 mM throughout both phases", "value": 15.4, "unit": "mmHg"},
      {"measurement": "IOP after treatment", "setting": "[5]; day 67, topical 1 mM from day 56 in left eyes previously on Dex+BSS (20.5 mmHg on day 56)", "value": 16.6, "unit": "mmHg"},
      {"measurement": "reduction in IOP", "setting": "[5]; topical 1 mM, treatment period of 11 days (day 56 to day 67)", "value": 19, "unit": "%"},
      {"measurement": "percentage of TM cell loss", "setting": "[1]; Dex 0.1% + PB 0.02 mM", "value": 39, "unit": "%"},
      {"measurement": "percentage of TM cell loss", "setting": "[1]; Dex 0.1% + PB 0.1 mM", "value": 31, "unit": "%"},
      {"measurement": "percentage of TM cell loss", "setting": "[1]; Dex 0.1% + PB 0.5 mM", "value": 26, "unit": "%"},
      {"measurement": "effect on glaucoma phenotypes / elevated intraocular pressure", "setting": "[6]", "value": "normalization of elevated intraocular pressure"},
      {"measurement": "glycogen deposition in trabecular meshwork (periodic acid-Schiff)", "setting": "[2]; dexamethasone + sodium phenylbutyrate 1mM", "value": "greatly reduced"},
      {"measurement": "collagen deposit in trabecular meshwork (Masson trichrome)", "setting": "[2]; dexamethasone + sodium phenylbutyrate", "value": "Reduced collagen stain"},
      {"measurement": "mean IOP level after cessation of topical PB", "setting": "[7]; Phase II, day 43 to day 60", "value": "about 16.5 mmHg"},
      {"measurement": "increase in IOP after cessation of topical PB", "setting": "[7]; day 43 to day 60, Dex+BSS after Dex+PB 0.5 mM", "value": "less than 2 mmHg"},
      {"measurement": "IOP at end of experiment", "setting": "[7]; day 60, 18 days after cessation of PB", "value": 16.6, "unit": "mmHg"},
      {"measurement": "duration of suppression of IOP rise after cessation of eyedrops", "setting": "[7]; topical PB 0.5 mM 5 times a day to day 42, then Dex+BSS", "value": "≤ 18", "unit": "days"},
      {"measurement": "cytotoxicity to trabecular meshwork cells (MTT)", "setting": "[8]", "value": "not cytotoxic"},
      {"measurement": "mean percentage of reduction in IOP increase", "setting": "[3]; day 14, PB 0.5 mM applied 1 time a day", "value": 13.2, "unit": "%"},
      {"measurement": "mean percentage of reduction in IOP increase", "setting": "[3]; day 14, PB 0.5 mM applied 2 times a day", "value": 54.4, "unit": "%"},
      {"measurement": "mean percentage of reduction in IOP increase", "setting": "[3]; day 14, PB 0.5 mM applied 4 times a day", "value": 57.9, "unit": "%"},
      {"measurement": "mean percentage of reduction in IOP increase", "setting": "[3]; day 14, PB 0.5 mM applied 5 times a day", "value": 74.9, "unit": "%"},
      {"measurement": "reduction in steroid-induced IOP rise", "setting": "[3]; day 14, other test doses (of 0.01, 0.1, 0.5, 1, 5, 15 mM), 5 times a day, strong responders", "value": "about 50%"},
      {"measurement": "percentage of mean reduction in IOP rise", "setting": "[3]; day 14, 5 times a day", "value": 45.0, "unit": "%"},
      {"measurement": "percentage of mean reduction in IOP rise", "setting": "[3]; day 37, 5 times a day", "value": 84.7, "unit": "%"},
      {"measurement": "percentage of mean reduction in IOP rise", "setting": "[3]; day 53, 5 times a day", "value": 50.0, "unit": "%"},
      {"measurement": "ultrastructure of trabecular meshwork (electron microscopy), deposition of electron dense materials", "setting": "[4]; dexamethasone with concurrent topical 1 mM sodium phenylbutyrate for 48 days", "value": "deposition was not apparent"},
      {"measurement": "adverse ocular or systemic effects", "setting": "[9]; application to the rabbit eye", "value": "No adverse ocular or systemic effects"},
      {"measurement": "change in corneal endothelial cell density (specular microscopy)", "setting": "[9]; [10]", "value": "did not cause any significant change"},
      {"measurement": "slit lamp biomicroscopy with fluorescein staining, defects in conjunctiva or cornea", "setting": "[9]; [10]", "value": "did not reveal any defects"},
      {"measurement": "systemic signs (diarrhea, paralysis, convulsions/seizures, bleeding, death)", "setting": "[9]; topical 1 and 5 mM 4 times a day, both eyes, 7-day post-treatment study period", "value": "none of them exhibited diarrhea, paralysis, convulsions/seizures, bleeding and/or death"},
      {"measurement": "ocular surface diseases (hyperemia, swelling, inflammation, ulcers, bleeding)", "setting": "[9]; topical 1 and 5 mM 4 times a day, examined days 7 and 14", "value": "No ocular surface (conjunctiva and cornea) diseases"}
    ]}
  ]
}
